In patent US20250304594A1, “METHYL (R)-2-(FLUOROMETHYL)-5-OXO-4-PHENYL-4,5,6,7-TETRAHYDRO-1H-CYCLOPENTA[B]PYRIDINE-3-CARBOXYLATE AND METHYL (R)-2-(FLUOROMETHYL)-5-OXO-4-PHENYL-1,4,5,7-TETRAHYDROFURO[3,4-B]PYRIDINE-3-CARBOXYLATE AS Cav1,2 ACTIVATORS” (Novartis AG, priority 2020, published 2025):

Columns and labels:
cFos mRNA = cFos mRNA induction in cortex of wild-type mice (PK-PD); type: in vivo, C57BL/6J male mice; settings: one hour after administration
Method: Assessment of Compound Exposure—cFos Induction (PK-PD) Relationship in Wild-Type Mice
(§1) Compound administration and brain tissue collection. Wild-type C57BL/6J male mice were obtained from Jackson laboratories (Bar Harbor, ME). The acute, single-dose effects of CaV1.2 activators of the present disclosure were evaluated in male eight-week old mice (n=6 mice per compound). Each compound was dissolved in 10% PEG300, 10% Solutol, 10% Cremophore EL, and 70% Phosphate Buffered Saline and administered intraperitoneal (i.p.) at a concentration of 1 mg/kg up to 30 mg/kg depending on the compound. Animals were euthanized one hour after compound administration via exsanguination under deep anesthesia. Blood was collected in EDTA tubes for downstream analysis of drug levels. Brains were rapidly removed from the skull, and the cerebral cortex and cerebellum were regionally dissected. Cerebellar samples were snap frozen in liquid nitrogen to assess compound exposure. Cortical samples for cFos assessment were placed in 500 μl of RNAlater solution (ThermoFisher) to preserve the integrity of RNA in the sample. Samples remained in RNAlater for at least 24 hours at 4° C. before moving to −80° C. for storage before processing.
Quantification of cFos mRNA induction. Tissue homogenization was performed using TissueLyser system for 96 well plates (Qiagen). First, frozen cortical samples were thawed, removed from RNAlater, and placed into TissueLyser tubes along with Buffer RLT containing 0.5% Reagent DX and one 5 mm TissueLyser metal bead. The TissueLyser tubes were loaded into a TissueLyser II tissue homogenizer for 3 rounds of homogenization, with each round lasting 5 minutes at 30 Hz bead-beating frequency. Total RNA was purified from the homogenate using RNeasy 96 Plus kit (Qiagen), RNA concentration and A260/A280 ratio were quantified via the Nanodrop (ThermoFisher), and all samples were normalized to 100 ng/μL concentration. RNA was reverse transcribed into cDNA using the Superscript III First-strand synthesis SuperMix Kit (ThermoFisher). For each sample, 6 μL of RNA (600 ng total) was mixed with 1 μL of Oligo dT and 1 μl of annealing buffer and heated to 65° C. for 5 minutes. Next, 10 μL of 2× First-Strand Reaction Mix and 2 μl of the Enzyme mix were added to achieve a total reaction volume of 20 μL. The samples were heated to 50° C. for 50 minutes then 85° C. for 5 minutes to complete cDNA synthesis.
Quantitative PCR was performed on the cDNA samples using Quantitect Multiplex RT-PCR kit (Qiagen) in a 384-well assay format. Each PCR well contained 2 μl of cDNA (60 ng total), 10 μL of RT-PCR mastermix, 1 μL of cFos FAM Taqman probe (Mm00487425_m1 (FAM) #4351368), 1 μL of GAPDH VIC Taqman probe (Mm99999915-g1 (VIC) #4448486), 0.2 μl of Multiplex RT mix and 5.8 μl of RNase-free water. On the ViiA7 Real-Time PCR system (ThermoFisher), the samples were heated to 95° C. for 15 minutes then cycled between 94° C. for 45 seconds and 60° C. for 45 seconds for 45 cycles. cFos Ct values were exported, normalized to GAPDH Ct values, and converted to relative fold change in expression using the delta-delta Ct relative quantification method. cFos fold changes between compound treatments and vehicle were analyzed by one-way ANOVA, followed by Tukey's post-hoc comparisons.

[1] = Compound exposure in wild-type mice (brain and blood levels); type: in vivo, C57BL/6J male mice; settings: Table 9, mice, i.p., one hour after administration; for Kp at 1 h: male, C57BL/6J, mouse, brain (cerebellum) / blood, ip, read-out: Brain:blood ratio
Method: as §1
Quantification of compound exposure. Cerebellar tissue samples were homogenized in 4 ml of 20% acetonitrile and 80% Phosphate buffered saline for every 1 g of tissue (5× dilution). Tissue was homogenized using either of the following three methods: hand held probe system, TissueLyser system with 5 mm steel bead at a frequency of 30 s^−1 for 4 min, or OMNI Bead Ruptor Elite homogenizer for 30 seconds to 1 minute depending on tissue type. Tissue samples were added to a 96-well plate (12.5 uL sample) and processed for quantification by mass spectrometry.

| SMILES | %↑cFOS mRNA cortex (3 mg/kg ip) (cFos mRNA) | Kp at 1 h [1] | %↑cFOS mRNA cortex (10 mg/kg ip) (cFos mRNA) | Brain:blood ratio [1] |
| --- | --- | --- | --- | --- |
| COC(=O)C1=C(CF)NC2=C(C(=O)CC2)[C@H]1c1cccc(F)c1[C@@H](F)CF (single isomer, unassigned) [Example 7, methyl (R)-4-(2-((R or S)-1,2-difluoroethyl)-3-fluorophenyl)-2-(fluoromethyl)-5-oxo-4,5,6,7-tetrahydro-1H-cyclopenta[b]pyridine-3-carboxylate] | 262% |  |  |  |
| COC(=O)C1=C(CF)NC2=C(C(=O)OC2)[C@H]1c1cc(F)cc(F)c1C1CC1 (single isomer, unassigned) [Example 13] | 225% | 3.5 | 444% |  |
| COC(=O)C1=C(CF)NC2=C(C(=O)OC2)[C@H]1c1cccc(F)c1C(F)F (single isomer, unassigned) [Example 15] | 176% | 1.7 | 294% |  |
| COC(=O)C1=C(CF)NC2=C(C(=O)OC2)[C@H]1c1cccc(F)c1C(F)(F)F (single isomer, unassigned) [Example 17] | 201% | 2.1 |  |  |
| COC(=O)C1=C(CF)NC2=C(C(=O)OC2)[C@H]1c1cccc(F)c1C1CC1 (single isomer, unassigned) [Example 2] | 378% | 1.5 |  |  |
| COC(=O)C1=C(CF)NC2=C(C(=O)OC2)[C@H]1c1cc(F)cc(F)c1[C@H]1CC1(F)F (single isomer, unassigned) [Example 3, Methyl (R)-4-(2-((R or S)-2,2-difluorocyclopropyl)-3,5-difluorophenyl)-2-(fluoromethyl)-5-oxo-1,4,5,7-tetrahydrofuro[3,4-b]pyridine-3-carboxylate] | 204% | 2.8 |  |  |
| COC(=O)C1=C(CF)NC2=C(C(=O)CC2)[C@H]1c1cccc(F)c1C1CC1 (single isomer, unassigned) [Example 28] | 293% | 1.1 |  |  |
| COC(=O)C1=C(CF)NC2=C(C(=O)OC2)[C@H]1c1cc(F)cc(F)c1[C@H](C)F (single isomer, unassigned) [Example 5, methyl (R)-4-(3,5-difluoro-2-((R or S)-1-fluoroethyl)phenyl)-2-(fluoromethyl)-5-oxo-1,4,5,7-tetrahydrofuro[3,4-b]pyridine-3-carboxylate] | 400% | 3.3 |  |  |
| COC(=O)C1=C(CF)NC2=C(C(=O)OC2)[C@H]1c1cc(F)cc(F)c1C(F)(F)F (single isomer, unassigned) [Example 10] | 225% | 0.9 |  |  |
| COC(=O)C1=C(CF)NC2=C(C(=O)OC2)[C@H]1c1cccc(F)c1[C@H]1CC1(F)F (single isomer, unassigned) [Example 1, methyl (R)-4-(2-((R or S)-2,2-difluorocyclopropyl)-3-fluorophenyl)-2-(fluoromethyl)-5-oxo-1,4,5,7-tetrahydrofuro[3,4-b]pyridine-3-carboxylate] | 254% | 2.9 |  |  |
| COC(=O)C1=C(CF)NC2=C(C(=O)OC2)[C@H]1c1cccc(F)c1[C@H](F)CF (single isomer, unassigned) [Example 6] | 199% | 1.5 |  |  |
| COC(=O)C1=C(CF)NC2=C(C(=O)OC2)[C@H]1c1cc(F)cc(F)c1C(F)F (single isomer, unassigned) [Example 18] | 173% | 1 | 280% |  |
| COC(=O)C1=C(CF)NC2=C(C(=O)OC2)[C@H]1c1cccc(F)c1[C@@H](C)F (single isomer, unassigned) [Example 8] | 496% | 3.5 |  |  |
| COC(=O)C1=C(CF)NC2=C(C(=O)OC2)[C@H]1c1cc(F)cc(F)c1[C@H]1CC1(F)F (single isomer, unassigned) [Example 4, Methyl (R)-4-(2-((R or S)-2,2-difluorocyclopropyl)-3,5-difluorophenyl)-2-(fluoromethyl)-5-oxo-1,4,5,7-tetrahydrofuro[3,4-b]pyridine-3-carboxylate] | 161% |  |  | 1.4 |
| COC(=O)C1=C(CF)NC2=C(C(=O)OC2)[C@H]1c1cc(F)cc(F)c1[C@H](F)CF (single isomer, unassigned) [Example 16, methyl (R)-4-(2-((R or S)-1,2-difluoroethyl)-3,5-difluorophenyl)-2-(fluoromethyl)-5-oxo-1,4,5,7-tetrahydrofuro[3,4-b]pyridine-3-carboxylate] | 234% | 3.2 |  |  |
| COC(=O)C1=C(CF)NC2=C(C(=O)OC2)[C@H]1c1cccc(F)c1CC(F)F (single isomer, unassigned) [Example 11] | 160% | 1.1 |  |  |
| COC(=O)C1=C(CF)NC2=C(C(=O)OC2)[C@H]1c1ccccc1OC(F)F (single isomer, unassigned) [Example 9] | 290% | 1.5 | 525% |  |
| COC(=O)C1=C(CF)NC2=C(C(=O)OC2)[C@H]1c1cc(F)ccc1C(F)(F)F (single isomer, unassigned) [Example 23] | 365% | 1.2 |  |  |
